Reference: ChEMBL document CHEMBL5634193, “Discovery of CVN293, a Brain Permeable KCNK13 (THIK-1) Inhibitor Suitable for Clinical Assessment” (ACS Med Chem Lett, 2024)
pIC50: −log10 of the molar value. The source made the active and inactive calls. The calls are words filed in the database; no cut-off is given here.

Columns and labels:
[1] = Protein binding in mouse brain assessed as unbound fraction by equilibrium dialysis; type: ADME, tissue-based
[2] = AUC (0 to infinity) in Sprague-Dawley rat at 0.5 mg/kg, iv; type: ADME, organism-based; details: in vivo
[3] = target: T1, Potassium channel subfamily K member 13 (Homo sapiens, UniProt Q9HB14); test: Inhibition of human KCNK13 transfected in HEK293 cells; type: cell-based
T1 sequence (Q9HB14 whole entry): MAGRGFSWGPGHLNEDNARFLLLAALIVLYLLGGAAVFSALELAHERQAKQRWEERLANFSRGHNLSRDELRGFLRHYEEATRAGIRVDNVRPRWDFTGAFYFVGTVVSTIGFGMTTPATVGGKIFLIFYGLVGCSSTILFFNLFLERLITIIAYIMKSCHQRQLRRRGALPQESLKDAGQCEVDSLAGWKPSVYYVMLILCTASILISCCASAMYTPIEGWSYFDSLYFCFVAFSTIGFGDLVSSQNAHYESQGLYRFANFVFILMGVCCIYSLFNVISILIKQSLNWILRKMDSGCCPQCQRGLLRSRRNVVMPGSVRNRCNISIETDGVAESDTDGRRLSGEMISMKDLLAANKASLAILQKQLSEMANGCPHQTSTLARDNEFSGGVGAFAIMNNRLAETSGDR

[4] = species on record: Mus musculus; test: Effect on IL-1beta release in LPS-induced C57Bl6 mouse hippocampus upto 5 uM treated for 1 hr by ELISA; type: functional, tissue-based
[5] = Clearance in Cynomolgus monkey at 1 mg/kg, iv; type: ADME, organism-based, Macaca fascicularis; details: in vivo
[6] = target: T2, Potassium channel subfamily K member 13 (Homo sapiens) (UniProt Q9HB14); test: Inhibition of human KCNK13 transfected in HEK293 cells assessed as reduction in thallium influx incubated for 15 mins in dark by FLIPR assay relative to control; type: cell-based
T2 sequence (whole entry): T1 sequence (Q9HB14 whole entry)

[7] = target: T1, Potassium channel subfamily K member 13; test: Inhibition of human KCNK13 transfected in HEK293 cells assessed as reduction in thallium influx incubated for 15 mins in dark by FLIPR assay; type: cell-based
[8] = Tmax in Cynomolgus monkey at 3 mg/kg, po; type: ADME, organism-based, Macaca fascicularis; details: in vivo
[9] = AUC (0 to infinity) in Cynomolgus monkey at 1 mg/kg, iv; type: ADME, organism-based, Macaca fascicularis; details: in vivo
[10] = target: Voltage-gated inwardly rectifying potassium channel KCNH2 (Homo sapiens, UniProt Q12809); test: Inhibition of hERG; type: toxicity
Sequence of Voltage-gated inwardly rectifying potassium channel KCNH2 (Q12809 whole entry): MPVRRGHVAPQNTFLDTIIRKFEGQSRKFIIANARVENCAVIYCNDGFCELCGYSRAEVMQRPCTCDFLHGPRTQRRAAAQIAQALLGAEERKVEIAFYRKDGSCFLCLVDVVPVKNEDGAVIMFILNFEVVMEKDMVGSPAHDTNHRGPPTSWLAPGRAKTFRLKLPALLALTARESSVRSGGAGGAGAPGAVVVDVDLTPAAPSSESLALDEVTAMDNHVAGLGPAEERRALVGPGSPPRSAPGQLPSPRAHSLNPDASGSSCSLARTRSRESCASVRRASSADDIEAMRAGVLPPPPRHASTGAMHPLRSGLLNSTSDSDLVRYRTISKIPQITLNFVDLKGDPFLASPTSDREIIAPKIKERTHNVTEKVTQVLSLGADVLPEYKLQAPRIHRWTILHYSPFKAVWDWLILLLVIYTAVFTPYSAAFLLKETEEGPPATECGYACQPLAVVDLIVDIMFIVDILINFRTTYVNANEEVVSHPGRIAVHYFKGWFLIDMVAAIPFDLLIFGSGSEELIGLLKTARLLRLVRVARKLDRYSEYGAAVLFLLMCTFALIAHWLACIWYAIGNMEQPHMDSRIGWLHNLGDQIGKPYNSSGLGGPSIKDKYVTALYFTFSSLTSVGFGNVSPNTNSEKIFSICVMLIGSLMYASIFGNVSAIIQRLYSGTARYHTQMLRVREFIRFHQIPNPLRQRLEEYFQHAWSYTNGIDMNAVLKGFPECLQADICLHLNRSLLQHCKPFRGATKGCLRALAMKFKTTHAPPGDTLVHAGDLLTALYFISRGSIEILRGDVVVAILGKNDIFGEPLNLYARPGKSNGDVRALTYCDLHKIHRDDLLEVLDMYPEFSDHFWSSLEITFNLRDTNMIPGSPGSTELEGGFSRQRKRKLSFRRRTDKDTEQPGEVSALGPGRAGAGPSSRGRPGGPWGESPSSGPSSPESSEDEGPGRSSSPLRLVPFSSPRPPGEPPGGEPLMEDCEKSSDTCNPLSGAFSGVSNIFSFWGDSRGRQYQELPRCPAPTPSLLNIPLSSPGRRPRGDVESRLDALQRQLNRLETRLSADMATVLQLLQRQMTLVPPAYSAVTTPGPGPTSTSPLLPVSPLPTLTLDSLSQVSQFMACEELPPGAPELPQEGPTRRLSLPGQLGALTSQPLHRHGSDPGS

[11] = Half life in Beagle dog at 1 mg/kg, iv; type: ADME, organism-based, Canis lupus familiaris; details: in vivo
[12] = Cmax in Sprague-Dawley rat at 3 mg/kg, po; type: ADME, organism-based; details: in vivo
[13] = Half life in Sprague-Dawley rat at 0.5 mg/kg, iv; type: ADME, organism-based; details: in vivo

fraction unbound [1]: 0.136
AUC(0-inf) [2]: 222 ng·h/mL
pIC50 [3]: 7.39
clearance [5]: 22 mL/min/kg
Imax [6]: 100%
pIC50 [7]: 7.39
Tmax [8]: 1 h
AUC(0-inf) [9]: 782 ng·h/mL
half-life [11]: 0.5 h
Cmax [12]: 468 ng/mL
half-life [13]: 1 h
SMILES: Nc1nonc1-c1nc2cccc(F)c2n1Cc1cccnn1
Activity [4]: inactive
inhibition (INH) [10]: Not Active
